{
  "source": "paper PMC10412597",
  "about": "“Small molecule branched-chain ketoacid dehydrogenase kinase (BDK) inhibitors with opposing effects on BDK protein levels” (Nature Communications, 2023)",
  "parameters_in_all_cases": "Invitrogen kinase panel, per cent inhibition of kinase activity",
  "settings_in_all_cases": "10 µM, inhibitor",
  "key": {"ABL1": {"target": "ABL1 (Homo sapiens, UniProt P00519)", "sequence (P00519 whole entry)": "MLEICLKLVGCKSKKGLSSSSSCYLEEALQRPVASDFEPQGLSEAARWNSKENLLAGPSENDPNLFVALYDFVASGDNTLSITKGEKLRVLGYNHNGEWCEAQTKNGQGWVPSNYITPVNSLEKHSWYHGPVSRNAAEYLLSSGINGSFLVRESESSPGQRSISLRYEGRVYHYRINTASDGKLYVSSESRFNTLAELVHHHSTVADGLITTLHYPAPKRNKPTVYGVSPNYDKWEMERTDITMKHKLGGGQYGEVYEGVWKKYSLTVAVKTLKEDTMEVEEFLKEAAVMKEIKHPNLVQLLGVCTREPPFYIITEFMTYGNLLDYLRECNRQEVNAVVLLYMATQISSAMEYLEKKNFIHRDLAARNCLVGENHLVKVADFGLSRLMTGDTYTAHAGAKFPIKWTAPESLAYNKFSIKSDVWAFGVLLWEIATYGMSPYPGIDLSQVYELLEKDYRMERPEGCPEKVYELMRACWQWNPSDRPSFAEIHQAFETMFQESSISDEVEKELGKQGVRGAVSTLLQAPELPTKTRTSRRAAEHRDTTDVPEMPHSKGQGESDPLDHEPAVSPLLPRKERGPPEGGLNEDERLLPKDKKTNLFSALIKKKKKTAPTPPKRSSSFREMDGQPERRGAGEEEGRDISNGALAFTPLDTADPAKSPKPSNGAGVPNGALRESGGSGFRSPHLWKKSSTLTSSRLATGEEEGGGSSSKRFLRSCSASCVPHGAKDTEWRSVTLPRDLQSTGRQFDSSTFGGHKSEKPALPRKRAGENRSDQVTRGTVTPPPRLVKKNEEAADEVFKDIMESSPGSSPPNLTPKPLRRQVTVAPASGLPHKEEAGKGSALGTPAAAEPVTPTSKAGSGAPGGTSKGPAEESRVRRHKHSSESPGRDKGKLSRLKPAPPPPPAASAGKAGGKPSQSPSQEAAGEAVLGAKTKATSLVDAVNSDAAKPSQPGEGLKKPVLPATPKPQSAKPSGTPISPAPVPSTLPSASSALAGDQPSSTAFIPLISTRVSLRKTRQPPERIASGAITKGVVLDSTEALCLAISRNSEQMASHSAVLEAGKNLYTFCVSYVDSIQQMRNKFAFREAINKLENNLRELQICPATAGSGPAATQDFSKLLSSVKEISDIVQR", "procedure": "(§1) To discover a potent and selective BDK inhibitor, a subset of the Pfizer compound collection was screened. […] Off target activity was assessed in both CEREP and kinase panels (Supplementary Tables 2, 3)."}, "BTK": {"target": "BTK (Homo sapiens, UniProt Q06187)", "sequence (Q06187 whole entry)": "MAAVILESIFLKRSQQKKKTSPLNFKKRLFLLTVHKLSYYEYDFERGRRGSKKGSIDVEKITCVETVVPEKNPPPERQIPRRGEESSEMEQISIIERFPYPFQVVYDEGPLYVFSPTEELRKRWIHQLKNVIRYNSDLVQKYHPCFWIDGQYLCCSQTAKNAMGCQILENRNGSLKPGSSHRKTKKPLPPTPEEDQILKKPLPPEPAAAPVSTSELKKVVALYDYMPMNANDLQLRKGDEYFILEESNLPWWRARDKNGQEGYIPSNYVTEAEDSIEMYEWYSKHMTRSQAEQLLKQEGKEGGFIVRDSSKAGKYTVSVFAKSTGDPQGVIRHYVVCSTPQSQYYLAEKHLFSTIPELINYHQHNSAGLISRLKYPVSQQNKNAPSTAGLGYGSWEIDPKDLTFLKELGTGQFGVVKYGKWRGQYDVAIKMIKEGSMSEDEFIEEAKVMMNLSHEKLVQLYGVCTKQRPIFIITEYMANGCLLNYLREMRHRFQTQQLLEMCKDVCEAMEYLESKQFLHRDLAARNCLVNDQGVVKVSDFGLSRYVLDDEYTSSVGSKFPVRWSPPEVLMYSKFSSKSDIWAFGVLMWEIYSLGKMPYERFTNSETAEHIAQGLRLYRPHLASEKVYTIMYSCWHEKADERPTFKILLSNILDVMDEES", "procedure": "as §1"}, "CHEK1": {"target": "T1, CHEK1 (Homo sapiens, UniProt O14757)", "T1 sequence (O14757 1-476)": "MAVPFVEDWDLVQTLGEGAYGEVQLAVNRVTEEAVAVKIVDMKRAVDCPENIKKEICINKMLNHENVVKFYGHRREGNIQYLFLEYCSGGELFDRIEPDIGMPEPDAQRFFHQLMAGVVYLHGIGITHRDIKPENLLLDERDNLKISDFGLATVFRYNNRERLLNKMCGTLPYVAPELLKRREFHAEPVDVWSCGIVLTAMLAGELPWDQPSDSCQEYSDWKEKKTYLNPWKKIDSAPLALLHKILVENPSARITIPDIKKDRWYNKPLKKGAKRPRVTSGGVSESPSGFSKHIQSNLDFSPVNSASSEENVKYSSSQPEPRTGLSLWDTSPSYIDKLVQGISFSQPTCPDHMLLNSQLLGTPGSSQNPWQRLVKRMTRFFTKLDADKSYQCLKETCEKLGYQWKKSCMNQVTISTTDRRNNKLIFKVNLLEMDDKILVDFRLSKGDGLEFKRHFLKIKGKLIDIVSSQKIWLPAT", "procedure": "as §1"}, "CKI-delta": {"target": "T2, CKI-delta (Homo sapiens, UniProt P48730)", "T2 construct": "gene CSNK1D", "procedure": "as §1"}, "EPHA2": {"target": "EPHA2 (Homo sapiens, UniProt P29317)", "sequence (P29317 whole entry)": "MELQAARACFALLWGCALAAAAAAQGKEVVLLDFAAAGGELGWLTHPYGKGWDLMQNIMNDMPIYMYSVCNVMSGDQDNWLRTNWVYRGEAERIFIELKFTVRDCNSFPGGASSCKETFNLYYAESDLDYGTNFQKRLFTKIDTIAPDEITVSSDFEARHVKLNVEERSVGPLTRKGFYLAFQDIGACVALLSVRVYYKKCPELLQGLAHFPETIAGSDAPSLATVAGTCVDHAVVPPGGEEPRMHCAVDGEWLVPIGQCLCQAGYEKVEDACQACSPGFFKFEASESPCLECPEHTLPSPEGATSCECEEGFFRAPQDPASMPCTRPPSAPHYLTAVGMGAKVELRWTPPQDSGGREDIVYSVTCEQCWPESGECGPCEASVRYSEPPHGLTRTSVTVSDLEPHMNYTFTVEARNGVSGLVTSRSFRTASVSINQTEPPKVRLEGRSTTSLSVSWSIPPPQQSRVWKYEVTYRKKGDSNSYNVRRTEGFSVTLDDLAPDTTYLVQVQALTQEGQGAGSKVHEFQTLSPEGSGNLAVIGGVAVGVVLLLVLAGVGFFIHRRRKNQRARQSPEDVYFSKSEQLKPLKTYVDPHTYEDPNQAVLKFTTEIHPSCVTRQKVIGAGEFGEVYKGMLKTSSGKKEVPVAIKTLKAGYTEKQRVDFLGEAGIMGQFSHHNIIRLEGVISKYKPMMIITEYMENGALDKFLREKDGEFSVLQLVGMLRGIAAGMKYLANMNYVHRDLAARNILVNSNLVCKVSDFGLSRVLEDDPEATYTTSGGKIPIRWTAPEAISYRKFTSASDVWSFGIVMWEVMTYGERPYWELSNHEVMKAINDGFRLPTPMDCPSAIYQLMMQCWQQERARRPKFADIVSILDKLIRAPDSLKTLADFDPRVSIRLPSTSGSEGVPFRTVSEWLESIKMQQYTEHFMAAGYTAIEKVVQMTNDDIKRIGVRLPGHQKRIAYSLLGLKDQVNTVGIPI", "procedure": "as §1"}, "JAK3": {"target": "T3, JAK3 (Homo sapiens, UniProt P52333)", "T3 sequence (P52333 1-1124)": "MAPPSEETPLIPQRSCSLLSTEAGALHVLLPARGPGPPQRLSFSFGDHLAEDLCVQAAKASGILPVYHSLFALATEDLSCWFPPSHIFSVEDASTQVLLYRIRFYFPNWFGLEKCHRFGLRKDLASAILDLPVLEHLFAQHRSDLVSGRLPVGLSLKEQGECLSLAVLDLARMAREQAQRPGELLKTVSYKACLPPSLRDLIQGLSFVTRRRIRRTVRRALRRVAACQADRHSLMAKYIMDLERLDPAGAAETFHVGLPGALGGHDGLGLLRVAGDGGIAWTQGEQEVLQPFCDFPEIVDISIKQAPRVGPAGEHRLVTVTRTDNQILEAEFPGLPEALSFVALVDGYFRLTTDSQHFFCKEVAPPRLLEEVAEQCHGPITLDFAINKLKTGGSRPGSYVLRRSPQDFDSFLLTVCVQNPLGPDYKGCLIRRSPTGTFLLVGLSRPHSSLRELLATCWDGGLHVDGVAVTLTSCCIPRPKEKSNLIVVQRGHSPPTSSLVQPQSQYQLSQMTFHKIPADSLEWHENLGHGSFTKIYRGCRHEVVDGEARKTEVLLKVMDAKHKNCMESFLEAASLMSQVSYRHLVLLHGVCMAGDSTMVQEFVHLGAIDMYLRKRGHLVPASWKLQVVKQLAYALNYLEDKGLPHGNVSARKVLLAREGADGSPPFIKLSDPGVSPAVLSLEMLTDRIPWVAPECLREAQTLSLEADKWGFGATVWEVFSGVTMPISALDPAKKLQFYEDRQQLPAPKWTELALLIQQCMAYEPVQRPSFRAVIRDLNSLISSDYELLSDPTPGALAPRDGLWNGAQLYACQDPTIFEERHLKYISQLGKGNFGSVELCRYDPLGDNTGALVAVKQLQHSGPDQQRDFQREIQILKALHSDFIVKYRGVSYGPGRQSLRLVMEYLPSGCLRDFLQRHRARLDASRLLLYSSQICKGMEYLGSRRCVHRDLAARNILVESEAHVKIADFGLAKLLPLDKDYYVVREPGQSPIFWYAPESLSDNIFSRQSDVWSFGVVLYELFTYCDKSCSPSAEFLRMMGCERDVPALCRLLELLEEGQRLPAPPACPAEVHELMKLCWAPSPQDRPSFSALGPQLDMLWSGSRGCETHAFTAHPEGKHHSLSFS", "procedure": "as §1"}, "JNK2": {"target": "T4, JNK2 (Homo sapiens, UniProt P45984)", "T4 construct": "gene MAPK9", "procedure": "as §1"}, "LCK": {"target": "LCK (Homo sapiens, UniProt P06239)", "sequence (P06239 whole entry)": "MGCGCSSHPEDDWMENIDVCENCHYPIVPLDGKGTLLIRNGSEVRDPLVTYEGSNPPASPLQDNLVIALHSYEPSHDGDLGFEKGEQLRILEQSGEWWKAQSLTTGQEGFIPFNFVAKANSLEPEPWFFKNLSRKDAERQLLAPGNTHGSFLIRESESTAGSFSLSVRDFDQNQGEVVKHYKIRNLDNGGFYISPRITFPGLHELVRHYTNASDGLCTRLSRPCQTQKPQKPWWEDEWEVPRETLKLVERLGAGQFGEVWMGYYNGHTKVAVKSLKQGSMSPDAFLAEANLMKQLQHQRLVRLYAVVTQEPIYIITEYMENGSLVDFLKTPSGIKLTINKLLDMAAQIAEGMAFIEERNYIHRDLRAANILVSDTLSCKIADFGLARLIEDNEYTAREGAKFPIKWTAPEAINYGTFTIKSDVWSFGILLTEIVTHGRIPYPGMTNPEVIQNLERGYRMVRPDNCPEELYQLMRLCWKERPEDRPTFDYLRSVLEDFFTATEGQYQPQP", "procedure": "as §1"}, "MAPK14": {"target": "MAPK14 (Homo sapiens, UniProt Q16539)", "sequence (Q16539 whole entry)": "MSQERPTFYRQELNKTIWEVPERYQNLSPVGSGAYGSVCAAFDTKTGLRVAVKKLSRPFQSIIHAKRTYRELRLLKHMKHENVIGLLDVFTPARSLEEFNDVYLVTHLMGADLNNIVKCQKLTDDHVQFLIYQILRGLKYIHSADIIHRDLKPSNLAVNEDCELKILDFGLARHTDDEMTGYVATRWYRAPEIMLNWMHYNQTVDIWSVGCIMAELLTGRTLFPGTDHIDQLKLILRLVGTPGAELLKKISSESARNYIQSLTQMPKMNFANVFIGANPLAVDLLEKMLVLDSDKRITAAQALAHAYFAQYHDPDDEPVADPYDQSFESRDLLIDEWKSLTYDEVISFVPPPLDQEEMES", "procedure": "as §1"}, "MARK3": {"target": "MARK3 (Homo sapiens, UniProt P27448)", "sequence (P27448 whole entry)": "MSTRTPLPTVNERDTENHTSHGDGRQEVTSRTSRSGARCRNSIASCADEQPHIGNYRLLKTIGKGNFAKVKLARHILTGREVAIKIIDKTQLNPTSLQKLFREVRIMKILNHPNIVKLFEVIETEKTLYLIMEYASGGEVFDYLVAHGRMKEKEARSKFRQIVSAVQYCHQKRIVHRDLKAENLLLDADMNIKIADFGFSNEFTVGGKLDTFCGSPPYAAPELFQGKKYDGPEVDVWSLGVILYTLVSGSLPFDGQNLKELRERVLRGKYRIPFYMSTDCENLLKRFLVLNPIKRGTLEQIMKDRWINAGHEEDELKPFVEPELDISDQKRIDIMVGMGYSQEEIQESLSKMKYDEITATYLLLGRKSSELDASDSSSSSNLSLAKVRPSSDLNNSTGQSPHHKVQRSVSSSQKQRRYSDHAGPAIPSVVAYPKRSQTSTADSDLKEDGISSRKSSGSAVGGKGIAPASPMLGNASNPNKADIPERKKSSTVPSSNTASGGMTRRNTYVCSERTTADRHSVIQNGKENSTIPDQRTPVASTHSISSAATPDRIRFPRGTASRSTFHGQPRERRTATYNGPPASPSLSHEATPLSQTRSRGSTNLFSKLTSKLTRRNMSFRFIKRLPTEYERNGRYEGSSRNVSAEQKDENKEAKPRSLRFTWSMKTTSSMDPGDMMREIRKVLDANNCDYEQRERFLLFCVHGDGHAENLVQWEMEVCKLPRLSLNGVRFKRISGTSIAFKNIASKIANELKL", "procedure": "as §1"}, "MEK1": {"target": "T5, MEK1 (Homo sapiens, UniProt Q02750)", "T5 construct": "gene MAP2K1", "procedure": "as §1"}, "PAK4": {"target": "PAK4 (Homo sapiens, UniProt O96013)", "sequence (O96013 whole entry)": "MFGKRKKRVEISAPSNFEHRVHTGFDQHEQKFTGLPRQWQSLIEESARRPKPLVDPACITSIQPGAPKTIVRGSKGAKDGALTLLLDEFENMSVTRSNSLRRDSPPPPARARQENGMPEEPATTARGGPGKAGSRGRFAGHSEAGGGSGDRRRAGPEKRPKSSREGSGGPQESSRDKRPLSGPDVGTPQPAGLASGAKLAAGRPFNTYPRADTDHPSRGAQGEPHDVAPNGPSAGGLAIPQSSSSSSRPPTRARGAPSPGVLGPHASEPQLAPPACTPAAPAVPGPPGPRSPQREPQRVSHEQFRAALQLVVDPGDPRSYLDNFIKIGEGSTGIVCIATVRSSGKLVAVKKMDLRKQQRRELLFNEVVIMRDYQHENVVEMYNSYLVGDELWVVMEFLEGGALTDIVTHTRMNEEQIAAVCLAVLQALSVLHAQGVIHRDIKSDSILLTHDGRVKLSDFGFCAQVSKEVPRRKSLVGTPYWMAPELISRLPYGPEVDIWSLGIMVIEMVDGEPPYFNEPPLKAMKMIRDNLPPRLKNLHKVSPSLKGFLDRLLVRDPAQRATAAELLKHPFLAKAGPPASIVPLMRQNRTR", "procedure": "as §1"}, "mixed lineage kinase 1": {"target": "T6, mixed lineage kinase 1 (Homo sapiens, UniProt P80192)", "T6 construct": "gene MAP3K9", "procedure": "as §1"}},
  "data": [
    {"compound": "O=C(O)c1sc2cc(F)sc2c1Cl", "note": "[PF-07208254, 3-chloro-5-fluorothieno[3,2-b]thiophene-2-carboxylic acid]", "values": [
      {"measurement": "ATP = 1 mM % Inhibition PF-07208254", "setting": "ABL1", "result": -0.5, "unit": "%"},
      {"measurement": "ATP = Km % Inhibition PF-07208254", "setting": "ABL1", "result": 9.0, "unit": "%"},
      {"measurement": "ATP = 1 mM % Inhibition PF-07208254", "setting": "BTK", "result": 0.8, "unit": "%"},
      {"measurement": "ATP = Km % Inhibition PF-07208254", "setting": "BTK", "result": 5.9, "unit": "%"},
      {"measurement": "ATP = 1 mM % Inhibition PF-07208254", "setting": "CHEK1", "result": 4.3, "unit": "%"},
      {"measurement": "ATP = Km % Inhibition PF-07208254", "setting": "CHEK1", "result": 4.6, "unit": "%"},
      {"measurement": "ATP = Km % Inhibition PF-07208254", "setting": "CKI-delta", "result": 9.1, "unit": "%"},
      {"measurement": "ATP = 1 mM % Inhibition PF-07208254", "setting": "EPHA2", "result": -5.6, "unit": "%"},
      {"measurement": "ATP = Km % Inhibition PF-07208254", "setting": "EPHA2", "result": 0.5, "unit": "%"},
      {"measurement": "ATP = 1 mM % Inhibition PF-07208254", "setting": "JAK3", "result": -4.1, "unit": "%"},
      {"measurement": "ATP = Km % Inhibition PF-07208254", "setting": "JAK3", "result": 0.9, "unit": "%"},
      {"measurement": "ATP = 100 uM % Inhibition PF-07208254", "setting": "JNK2", "result": -3.0, "unit": "%"},
      {"measurement": "ATP = 1 mM % Inhibition PF-07208254", "setting": "LCK", "result": 9.9, "unit": "%"},
      {"measurement": "ATP = Km % Inhibition PF-07208254", "setting": "LCK", "result": 20.6, "unit": "%"},
      {"measurement": "ATP = 1 mM % Inhibition PF-07208254", "setting": "MAPK14", "result": 4.0, "unit": "%"},
      {"measurement": "ATP = Km % Inhibition PF-07208254", "setting": "MAPK14", "result": 3.0, "unit": "%"},
      {"measurement": "ATP = Km % Inhibition PF-07208254", "setting": "MARK3", "result": 5.0, "unit": "%"},
      {"measurement": "ATP = 100 uM % Inhibition PF-07208254", "setting": "MEK1", "result": 4.1, "unit": "%"},
      {"measurement": "ATP = 1 mM % Inhibition PF-07208254", "setting": "PAK4", "result": 0.9, "unit": "%"},
      {"measurement": "ATP = Km % Inhibition PF-07208254", "setting": "PAK4", "result": 6.0, "unit": "%"},
      {"measurement": "ATP = Km % Inhibition PF-07208254", "setting": "mixed lineage kinase 1", "result": 3.2, "unit": "%"}
    ]},
    {"compound": "CCC1(COc2ccc(-c3csc(-c4ccccc4C(=O)O)n3)cn2)CC1", "note": "[PF-07247685, 2-(4-{6-[(1-ethylcyclopropyl)methoxy]pyridin-3-yl}-1,3-thiazol-2-yl)benzoic acid]", "values": [
      {"measurement": "ATP = 1 mM % Inhibition PF-07247685", "setting": "ABL1", "result": 0.9, "unit": "%"},
      {"measurement": "ATP = Km % Inhibition PF-07247685", "setting": "ABL1", "result": 5.1, "unit": "%"},
      {"measurement": "ATP = 1 mM % Inhibition PF-07247685", "setting": "BTK", "result": 3.1, "unit": "%"},
      {"measurement": "ATP = Km % Inhibition PF-07247685", "setting": "BTK", "result": -0.7, "unit": "%"},
      {"measurement": "ATP = 1 mM % Inhibition PF-07247685", "setting": "CHEK1", "result": 4.5, "unit": "%"},
      {"measurement": "ATP = Km % Inhibition PF-07247685", "setting": "CHEK1", "result": -3.1, "unit": "%"},
      {"measurement": "ATP = Km % Inhibition PF-07247685", "setting": "CKI-delta", "result": 6.0, "unit": "%"},
      {"measurement": "ATP = 1 mM % Inhibition PF-07247685", "setting": "EPHA2", "result": 5.6, "unit": "%"},
      {"measurement": "ATP = Km % Inhibition PF-07247685", "setting": "EPHA2", "result": 0.6, "unit": "%"},
      {"measurement": "ATP = 1 mM % Inhibition PF-07247685", "setting": "JAK3", "result": -0.0, "unit": "%"},
      {"measurement": "ATP = Km % Inhibition PF-07247685", "setting": "JAK3", "result": 0.8, "unit": "%"},
      {"measurement": "ATP = 100 uM % Inhibition PF-07247685", "setting": "JNK2", "result": 4.3, "unit": "%"},
      {"measurement": "ATP = 1 mM % Inhibition PF-07247685", "setting": "LCK", "result": 3.0, "unit": "%"},
      {"measurement": "ATP = Km % Inhibition PF-07247685", "setting": "LCK", "result": 5.9, "unit": "%"},
      {"measurement": "ATP = 1 mM % Inhibition PF-07247685", "setting": "MAPK14", "result": 7.1, "unit": "%"},
      {"measurement": "ATP = Km % Inhibition PF-07247685", "setting": "MAPK14", "result": 3.5, "unit": "%"},
      {"measurement": "ATP = Km % Inhibition PF-07247685", "setting": "MARK3", "result": 2.1, "unit": "%"},
      {"measurement": "ATP = 100 uM % Inhibition PF-07247685", "setting": "MEK1", "result": 11.2, "unit": "%"},
      {"measurement": "ATP = 1 mM % Inhibition PF-07247685", "setting": "PAK4", "result": 3.7, "unit": "%"},
      {"measurement": "ATP = Km % Inhibition PF-07247685", "setting": "PAK4", "result": 8.3, "unit": "%"},
      {"measurement": "ATP = Km % Inhibition PF-07247685", "setting": "mixed lineage kinase 1", "result": 6.3, "unit": "%"}
    ]}
  ]
}
